Experimental data as given in patent US20220280594A1, “APPLICATION OF POLYPEPTIDE OR DERIVATIVE THEREOF” (CHENGDU HUITAI BIOMEDICINE CO., LTD., priority 2019, published 2022).
Ends that are not written are not given here. PEG = not defined here

Assays:
Assay type in all cases: cell-based
[1] = test system: human thyroid cancer cells (FRO); assay: scratch assay, migration of FRO cells; conditions: 10 μM, 48 hours, control group 60.34 ± 8.32
Procedure, shortened: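 FRO monolayers were scratched, washed, and cultured 48 h in 2% FBS medium with polypeptide derivatives at 10 μM or PBS control, three wells per group. Migration rate (%) = (original − current scratch width)/original width × 100, measured from images.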

[2] = test system: human liver adenocarcinoma cells (SK-HEP-1); assay: transwell migration assay, SK-HEP-1 cells; conditions: SK-HEP-1 transwell migration, 10 μM, 24 hours; control group 1 782 ± 108, control group 2 768 ± 86
Procedure, shortened: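 SK-HEP-1 cells in serum-free medium seeded in upper transwell chamber (2-3×10^5 cells/mL) over complete medium; after 4-5 h at 37 °C, 5% CO2, peptide added at 10 μM final in upper chamber. After 24 h, migrated cells fixed in methanol, crystal-violet stained, imaged and counted.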

[3] = test system: human lung cancer cells (95D); assay: scratch assay, migration of 95D cells; conditions: 10 μM, 48 hours, control group 55.3 ± 3.19
Procedure, shortened: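 Confluent 95D monolayers were scratched, washed with PBS and cultured 48 h in 2% FBS medium containing peptide (10 μM) or PBS control, in triplicate wells. Scratch width was measured on images; migration rate (%) = (original width − current width)/original width × 100.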

[4] = test system: human oral epidermoid carcinoma KB cells; assay: scratch assay, migration of KB cells; conditions: 10 μM, 48 hours, control group 54.03 ± 4.21
Procedure, shortened: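 Monolayers of KB cells were scratched, washed with PBS, then cultured 48 hours in 2% FBS medium containing test polypeptide (10 μM) or PBS control, in triplicate wells. From images, migration rate (%) = (original − current scratch width)/original width × 100.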

[5] = test system: human prostate cancer cells (22RV1); assay: scratch assay, migration of 22RV1 cells; conditions: 22RV1, 10 μM, 48 hours; control group 25.41 ± 5.01
Procedure, shortened: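 22RV1 monolayers (seeded 1-2×10^5 cells/well) were scratched, washed, then given 2% FBS medium with 10 μM polypeptide or PBS, triplicate wells, for 48 h. Migration rate (%) = (original − current scratch width)/original width ×100, from ≥3 images per well.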

[6] = test system: human lung squamous carcinoma cells (NCI-H226); assay: scratch assay, migration of NCI-H226 cells; conditions: NCI-H226, 10 μM, 48 hours; control group 65.31 ± 3.19
Procedure, shortened: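 A straight scratch was made in confluent NCI-H226 monolayers (1-2×10^5 cells/well). Cells were then kept 48 h in 2% FBS medium with 10 μM polypeptide or PBS control, triplicate wells. Migration rate (%) = (original − current scratch width)/original width ×100, from imaged scratch widths.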

[7] = test system: human pharyngeal squamous-cell carcinoma cells (Fadu); assay: scratch assay, migration of Fadu cells; conditions: 10 μM, 48 hours, control group 28.76 ± 4.08
Procedure, shortened: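 Confluent Fadu monolayers scratched, then cultured 48 h with 10 μM polypeptide in medium with 2% FBS; PBS control, triplicate wells. Migration rate (%) = (original − current scratch width)/original width × 100, from ≥3 images per well.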

[8] = test system: human liver adenocarcinoma cells (SK-HEP-1); assay: transwell invasion assay, SK-HEP-1 cells; conditions: SK-HEP-1 transwell invasion, 10 μM, 24 hours; control group 767 ± 91
Procedure, shortened: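 Serum-free SK-HEP-1 cells were seeded in matrigel-coated upper chambers over complete medium. After 4-5 h, peptide was added to the upper chamber at 10 μM final. Following 24 h at 37° C., invaded cells were fixed, crystal violet-stained, imaged and counted.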

Row | Substance | Migration rate (%) (mean ± SD, P) [1] | Number of cells (mean ± SD, P), migrated cells [2] | Migration rate (%) (mean ± SD, P) [3] | Migration rate (%) (mean ± SD, P) [4] | Migration rate (%) (mean ± SD, P) [5] | Migration rate (%) (mean ± SD, P) [6] | Migration rate (%) (mean ± SD, P) [7] | Number of cells (mean ± SD, P), invaded cells [8]
1 | N48: SEQ ID NO: 1 with A7R, deletion of position 11 and position 18, PEG modification at the carboxyl terminal (YRVRFLRKENTQDAED-{PEG}; reading uncertain) | 13.78 ± 2.61,*** % | 374 ± 22,*** | 25.07 ± 6.31,** % | 9.09 ± 4.23,*** % | 5.61 ± 3.14,** % | 25.07 ± 4.31,*** % | 8.78 ± 4.34,*** % | 109 ± 10,****
2 | N49: SEQ ID NO: 1 with A7R, deletion of positions 1-2 and position 18, PEG modification at the carboxyl terminal (VRFLRKENVTQDAED-{PEG}; reading uncertain) | 15.77 ± 2.99,** % | 137 ± 11,**** | 29.37 ± 3.62,** % | 16.51 ± 3.93,** % | 6.18 ± 1.89,** % | 38.90 ± 5.49,** % | 6.29 ± 2.62,*** % | 335 ± 32,***
3 | N50: SEQ ID NO: 1 with N18R, addition of 2 amino acid at the carboxyl terminal, PEG modification at the amino terminal ({PEG}-YRVRFLAKENVTQDAEDRCT; reading uncertain) | 11.80 ± 4.15,*** % | 192 ± 16,**** | 31.05 ± 4.32,** % | 15.97 ± 2.93,** % | 6.20 ± 3.31,** % | 33.20 ± 3.59,** % | 5.44 ± 1.44,*** % | 243 ± 46,****
4 | N51: SEQ ID NO: 1 with A15R, one amino acid added at each terminal, PEG modification at the amino terminal ({PEG}-FYRVRFLAKENVTQDREDNC; reading uncertain) | 17.93 ± 5.55,** % | 306 ± 46,*** | 30.04 ± 5.08,** % | 37.96 ± 3.60,* % | 5.23 ± 2.42,** % | 33.16 ± 4.43,** % | 8.71 ± 1.79,*** % | 248 ± 39,****
5 | N52: SEQ ID NO: 1 with N18R, addition of two amino acids and PEG modification at the carboxyl terminal (YRVRFLAKENVTQDAEDRCT-{PEG}; reading uncertain) | 10.86 ± 3.90,*** % | 318 ± 37,*** | 27.19 ± 5.67,** % | 9.57 ± 1.61,*** % | 5.43 ± 1.97,** % | 27.19 ± 4.67,*** % | 7.76 ± 2.08,*** % | 132 ± 29,****
6 | N53: SEQ ID NO: 1 with A15R, one amino acid added at each terminal, PEG modification at the carboxyl terminal (FYRVRFLAKENVTQDREDNC-{PEG}; reading uncertain) | 20.32 ± 4.58,** % | 265 ± 32,**** | 21.05 ± 6.60,** % | 8.83 ± 1.75,*** % | 10.75 ± 3.22,* % | 41.05 ± 4.60,** % | 13.8 ± 3.05,** % | 143 ± 19,****
7 | N54: SEQ ID NO: 1 with A7R, addition of two amino acids and PEG modification at the carboxyl terminal (YRVRFLRKENVTQDAEDNTC-{PEG}; reading uncertain) | 8.26 ± 3.47% | 345 ± 3,**** | 24.66 ± 6.13,** % | 6.91 ± 3.44,*** % | 12.94 ± 2.70,* % | 24.66 ± 5.13,*** % | 15.88 ± 5.38,* % | 151 ± 28,****
